Read-outs that look alike come from different tables or passages of the source. Each block holds one compound with its values, some of them ahead of it.
How the values were obtained:
[1] = tested on: human colon carcinoma cell line HCT116; test: cells; assay type: cell-based; conditions: for GI50: Homo sapiens
Description: Cells plated at a density of 5,000 to 20,000 per well in 96-well microtiter plates were grown in RMPI 1640 containing 10% FBS, 100 U/mL penicillin and 100 μg/mL streptomycin, for 18 h at 37° C. in a humidified incubator with 5% CO2. Cells tested included ACHN, 786-0, HCT-116, SW620, SK-MEL-5, SK-MEL-28, A549, H322, OVCAR-3, SK-OV-3, MCF-7, MDA-MB-231, MOLT4, HL60, SNB-19, PC-3. Cells were treated with media containing chemotherapeutic drugs alone or with media containing chemotherapeutic drugs and a DNA-PK inhibitor of the invention, 1-(2-hydroxy-4-morpholin-4-yl-phenyl)-ethanone. Cells were incubated for two days before growth was measured using a tetrazolium dye assay (MTS). Chemotherapeutic drugs included bleomycin etoposide, vinblastine, doxorubicin, paclitaxel, cisplatin, chlorambucil, cyclophosphamide, 5-fluorouracil, cytosine-arabinoside, 6-mercaptoguanine and methotrexate (all purchased from Sigma). The drug concentration necessary to inhibit cell growth to 50% of untreated control cells was defined as the GI50.

[2] = target: T1, human DNA-PK (Homo sapiens, UniProt P78527); test: Standard DNA-PK assay (p53 peptide phosphorylation); assay type: biochemical
T1 construct: The frozen HeLa cell pellet was thawed at 37° C. and immediately centrifuged; endogenous in cells; host or cells: HeLa S3 cells (ATCC CCL-2.2); Endogenous enzyme purified via S100-2 fraction, Q-Sepharose FF and SP-Sepharose FF (fraction IV)
Description: Reactions were carried out at room temperature. Reactions were started by addition of ATP and stopped by application to phosphocellulose paper. Reaction products spotted onto phosphocellulose paper were washed five times with a total volume of at least 250 mL 10% acetic acid or 150 mM phosphoric acid. The paper was air dried and radioactivity was determined in a Beckman LS6000IC scintillation counter.

[3] = tested on: thymocytes from BALB/c and BALB/c p53-/p53- mice; HL60, Jurkat, JY, B16/F10, WS1; test: Cell viability, trypan blue exclusion assay; assay type: cell-based, human and mouse; conditions: up to 32 μM (thymocytes), up to 25 μM (cell lines), several days
Description: Cell viability was also tested during drug treatment using the trypan blue exclusion assay. […] Cultured cells were incubated in the presence of varying concentrations of 2-hydroxy-4-morpholin-4-yl-benzaldehyde up to 32 μM. Cultured human and mouse cell lines were incubated in RPMI 1640 media containing 10% FBS, 100 U/mL penicillin and 100 μg/mL streptomycin at 37° C. with 5% CO2 in a humidified incubator with 2-hydroxy-4-morpholin-4-yl-benzaldehyde for several days. Tumor cell lines, HL60, Jurkat, JY and B16/F10 and the normal cell line WS1 were tested using this assay when incubated at drug concentrations up to 25 μM.

[4] = tested on: DR3 cells (cultured mouse B-lymphocytes); test: V(D)J recombination assay; assay type: cell-based; conditions: 50 μM
Description: Recombination assays were performed as previously described (Leu et al., Mol. Cell. Biol 15:5657-5670 (1995)). […] Cells were concentrated and washed in HBS (containing 30 mM HEPES-KOH, pH 7.5, 140 mM NaCl, and 5 mM KCl) and resuspended in HBS at a density of 2.0×10^8 cells/mL. Cells (1.0×10^7) were transiently transfected by electroporation with 10 μg of the recombination substrate pJH200 (Leu et al., Mol. Cell. Biol. 15:5657-5670 (1995)) and transferred to a 90 mm cell culture dish containing 8 mL media with or without 2-hydroxy-4-morpholin-4-yl-benzaldehyde as described above. After 2 days, cells were removed from the dish with a rubber policeman, concentrated, washed one time with PBS, and resuspended in 0.1 mL lysis buffer (0.3% Triton X-100, 50 mM Tris-HCl, pH 7.5, 50 mM EDTA). Following a five min incubation at room temperature, cellular debris was removed by centrifugation at 12,000 rpm for two min in a microfuge. The supernatant was extracted sequentially with phenol and chloroform/[…] (24:1), after which, one tenth volume 3 M sodium acetate and 2 volumes cold 100% ethanol were added to the aqueous phase. Precipitated nucleic acid was collected by centrifugation at 12,000 rpm for 15 min and suspended in 25 μL water. An aliquot of the material was used to transform DH5α cells by electroporation. […]

[5] = tested on: HCT116 cells (human colon carcinoma) xenograft tumors; test: Animal tumor model, drug plus γ-radiation; assay type: in vivo, athymic BALB/c (nu/nu) mice; conditions: average tumor burden 500 mg; drug and 300 rad once daily for two days
Description: HCT116 cells (human colon carcinoma) were used to propagate xenograft tumors in 6-8 week old female athymic BALB/c (nu/nu) mice. Mice were maintained in a laminar airflow cabinet under pathogen-free conditions and fed sterile food and water ad libitum. HCT116 cells were grown to subconfluence in McCoy's media supplemented with 10% FBS, 100 U/mL penicillin, 100 μg/mL streptomycin, and 1.5 mM L-glutamine in a 5% CO2 humidified environment. Single cell suspensions were prepared in CMF-PBS (0.9 mM KCl, 2.7 mM KH2PO4, 13.8 mM NaCl, pH 7.5), and cell concentration adjusted to 4×10^7 cells/mL. Mice were inoculated subcutaneously (s.c.) on the right flank or right leg with a total of 4×10^6 cells (100 μL).
Mice were randomized (5 mice/group) into four treatment groups and used when tumors reached a weight of 75 to 100 mg (usually 7 to 11 days post-inoculation). Tumors were measured with vernier calipers and tumor weights were estimated using the empirically-derived formula below. Tumor weight(mg)=tumor length(mm)×tumor width(mm)^2/3.3. […] Tumor size was monitored every other day for the duration of the experiment.

[6] = Pharmacokinetic analysis after subcutaneous administration; assay type: in vivo, mice
[7] = tested on: Colon carcinoma cells (HCT116)
[8] = tested on: cultured human tumor cell lines (Table 4) and normal human fibroblast cell line MRC5; test: Cellular toxicity, MTS dye metabolism assay; conditions: 200 μM continuously for 48 h
[9] = read-out: IC50 (nM) DNA-PK Assay
[10] = with 1-(2-hydroxy-4-morpholin-4-yl-phenyl)-ethanone

Compound: bleomycin
GI50, in the presence of DNA-PK inhibitor ([1]; 100 μM 1-(2-hydroxy-4-morpholin-4-yl-phenyl)-ethanone): 3×10^−2 units/mL | GI50, chemotherapeutic drug alone ([1]; without DNA-PK inhibitor): 2×10^−1 units/mL

Compound: CC(=O)c1cc(F)c(N2CCOCC2)cc1O [Example 43 C, 1-(5-Fluoro-2-hydroxy-4-morpholin-4-yl-phenyl)-ethanone]
IC50 [2, 9]: 1500 nM

Compound: O=[N+]([O-])c1ccc(N2CCOCC2)cc1O [Example 33, 5-Morpholin-4-yl-2-nitro-phenol]
IC50 [2, 9]: 2000 nM

Compound: COc1cc(N2CCOCC2)ccc1C=O [Example 46 A, 2-Methoxy-4-morpholin-4-yl-benzaldehyde]
IC50 [2, 9]: 10000 nM

Compound: C[C@@]12c3ccc4c(c3C(=O)c3occ(c31)C(=O)C[C@H]2O)CCC4=O [demethoxyviridin, reference compound]
IC50 ([2]; standard kinase reaction, read-out: IC50, enzyme activity inhibited): 5 nM

Compound: COC(=O)c1cc(N2CCOCC2)ccc1O [Example 47, 2-Hydroxy-5-morpholin-4-yl-benzoic Acid Methyl Ester]
IC50 [2, 9]: 40000 nM

Compound: O=C(O)CCCc1ccc(N(CCCl)CCCl)cc1 [chlorambucil]
GI50 ([1]; HCT-116, read-out: GI50, chemotherapeutic drug alone): 120000 nM | GI50 ([1]; HCT-116, read-out: GI50, in the presence of DNA-PK inhibitor): 14000 nM

Compound: O=C(O)C(F)(F)F.O=C(O)c1ccc(CN2CCOCC2)cc1O [Example 52, 2-Hydroxy-4-morpholin-4-ylmethyl-benzoic Acid Trifluoroacetate]
melting point: 138 to 146 °C

Compound: CC(=O)c1ccc(N2CCOCC2)c(Cl)c1O [Example 42 B, 1-(3-Chloro-2-hydroxy-4-morpholin-4-yl-phenyl)-ethanone]
IC50 [2, 9]: 14000 nM

Compound: COc1cc([C@@H]2c3cc4c(cc3[C@@H](O[C@@H]3O[C@@H]5CO[C@@H](C)O[C@H]5[C@H](O)[C@H]3O)[C@H]3COC(=O)[C@H]23)OCO4)cc(OC)c1O [etoposide, reference compound]
GI50 ([1]; HCT-116, with 1-(2-hydroxy-4-morpholin-4-yl-phenyl)-ethanone, read-out: GI50, in the presence of DNA-PK inhibitor): 14000 nM | GI50 ([1]; HCT-116, without DNA-PK inhibitor, read-out: GI50, chemotherapeutic drug alone): 120000 nM | LD50 of etoposide without DNA-PK inhibitor ([7]; 24 h etoposide): 1.1 µM | LD90 of etoposide without DNA-PK inhibitor ([7]; 24 h etoposide): 2.9 µM | LD50 of etoposide with DNA-PK inhibitor [7, 10]: 0.075 µM | LD90 of etoposide with DNA-PK inhibitor [7, 10]: 0.9 µM

Compound: Nc1cc(NN2CCOCC2)ccc1[N+](=O)[O-] [Example 16, N^1-Morpholin-4-yl-4-nitrobenzene-1,3-diamine]
IC50 [2, 9]: 1000 nM

Compound: Nc1cc(N2CCNCC2)ccc1[N+](=O)[O-] [Example 20, 2-Nitro-5-piperazin-1-yl-phenylamine]
IC50 [2, 9]: 10000 nM

The remaining compounds from weak to strong by IC50 [2, 9], led by results:

IC50 [2, 9]: 1000 nM
Compound: N/N=C/c1ccc(N2CCOCC2)cc1O [Example 49, 2-Hydrazonomethyl-5-morpholin-4-yl-phenol]

IC50 [2, 9]: 1000 nM
Compound: O/N=C/c1ccc(N2CCOCC2)cc1O [Example 48, 2-((Hydroxyimino)methyl)-5-morpholin-4-yl-phenol]

IC50 [2, 9]: 500 nM
Compound: COC(=O)c1ccc(N2CCOCC2)cc1O [Example 30, 2-Hydroxy-4-morpholin-4-yl-benzoic Acid Methyl Ester]

IC50 [2, 9]: 500 nM
Compound: O=C(O)c1ccc(N2CCOCC2)cc1O [Example 29, 2-Hydroxy-4-morpholin-4-yl-benzoic Acid]

IC50 [2, 9]: 400 nM | duration of high plasma concentration [6]: remained high for about one hour
Compound: O=Cc1ccc(N2CCOCC2)cc1O [Example 32, 2-Hydroxy-4-morpholin-4-yl-benzaldehyde]
cells sensitive to killing, trypan blue exclusion method [3]: In no instances were cells sensitive to killing | DNA rearrangement (V(D)J recombination) inhibited [4]: 8 fold | tumors shrank [5]: greater than 10 fold | sensitivity of HCT116 to killing by γ-radiation ([7]; 200 μM): increased the sensitivity | killing of cell lines, MTS dye metabolism assay [8]: no evidence of killing

IC50 [2, 9]: 250 nM
Compound: O=C(c1ccc(N2CCOCC2)cc1O)C(F)(F)F [Example 38, 2,2,2-Trifluoro-1-(2-hydroxy-4-morpholin-4-yl-phenyl)-ethanone]

IC50 [2, 9]: 240 nM
Compound: CC(=O)c1ccc(N2CCOCC2)c(F)c1O [Example 43 D, 1-(3-Fluoro-2-hydroxy-4-morpholin-4-yl-phenyl)-ethanone]

IC50 [2, 9]: 150 nM
Compound: CC(C)CC(=O)c1ccc(N2CCOCC2)cc1O [Example 36, 1-(2-Hydroxy-4-morpholin-4-yl-phenyl)-3-methyl-butan-1-one]

IC50 [2, 9]: 120 nM
Compound: CCC(=O)c1ccc(N2CCOCC2)cc1O [Example 35, 1-(2-Hydroxy-4-morpholin-4-yl-phenyl)-propan-1-one]

IC50 [2, 9]: 120 nM
Compound: O=C(c1ccccc1)c1ccc(N2CCOCC2)cc1O [Example 37, 1-(2-Hydroxy-4-morpholin-4-yl-phenyl)-1-phenyl-methanone]
